Values of other authors, collected in patent US7906154B2, “Compositions and methods for the induction and maintenance of quality sleep” (priority 2006, dated 2011).
Like-named read-outs stand apart in the source and are kept apart here.

COC1=C(OC)C(=O)C(C/C=C(\C)CC/C=C(\C)CC/C=C(\C)CC/C=C(\C)CC/C=C(\C)CC/C=C(\C)CC/C=C(\C)CC/C=C(\C)CC/C=C(\C)CCC=C(C)C)=C(C)C1=O [CoQ10, Coenzyme Q10]
subjects with a decrease in the sound level of their snoring (during non-REM sleep stages I/II): about 40% | subjects with a decrease in the sound level of their snoring (during non-REM sleep stages III/IV): about 33% | subjects with a decrease in the sound level of their snoring (during the REM stage of sleep): about 44%
